Earlier results in patent US20060216365A1, “Aromatherapeutic environmental system” (priority 2000, published 2006).

Assays:
[1] = mice, literature (Hikino et al 1980)
[2] = mice, literature (Hikino et al 1980); remark: listed apart in the source
[3] = test system: monoamine oxidase; conditions: literature (Truitt 1967)

CC(=O)O[C@H]1C[C@@H]2C[C@H]3[C@@H]([C@H](OC(C)=O)C[C@H]3C)[C@]1(C)OC2(C)C [Kessyl glycol diacetate]
inhibition of stress-induced ulcer formation [1]: no inhibitory action | prolongation of hexobarbital-induced sleep / enhancement of hexobarbital anesthesis [2]: active principles

C=CCc1cc(OC)c2c(c1)OCO2 [myristicin]
monoamine oxidase inhibiting activity [3]: mild degree

Kessyl glycol 2-acetate
prolongation of hexobarbital-induced sleep / enhancement of hexobarbital anesthesis [2]: active principles

Kessyl glycol 8-acetate
prolongation of hexobarbital-induced sleep / enhancement of hexobarbital anesthesis [2]: active principles
